# Source: ChEMBL document CHEMBL5724914, “Linking interpersonal differences in gut microbiota composition and drug biotransformation activity” (2024)
# How the values were obtained:
# [1] = (§1) The drug is tested on WLS-077 corresponding to human gut metagenome with ENA study accession number: PRJEB37062 and ENA sample accession number: ERS12561750 for biotransformation under anaerobic condition. The drug concentrations were measured over 9 timepoints collected between 0 and 24 hours of incubation by liquid-chromatography-coupled mass spectrometry (LC–MS); settings: 2 µM
# [2] = as §1, with “WLS-073” for “WLS-077”, “ERS12561749” for “ERS12561750”; settings: 2 µM
# [3] = human gut metagenome, 24 h, 2 µM
# [4] = as §1, with “Z-014” for “WLS-077”, “rat” for “human”, “ERS12561814” for “ERS12561750”; settings: 2 µM
# [5] = as §1, with “WLS-052” for “WLS-077”, “ERS12561747” for “ERS12561750”; settings: 2 µM
# [6] = as §1, with “WLS-370” for “WLS-077”, “ERS12561793” for “ERS12561750”; settings: 2 µM
# [7] = human gut metagenome, 24 h, 2 µM; remark: listed apart in the source
# [8] = as §1, with “Z-001” for “WLS-077”, “mouse” for “human”, “ERS12561801” for “ERS12561750”; settings: 2 µM
# [9] = human gut metagenome, 24 h, 2 µM; remark: listed apart in the source
# [10] = as §1, with “Z-030” for “WLS-077”, “mouse” for “human”, “ERS12561829” for “ERS12561750”; settings: 2 µM
# [11] = human gut metagenome, 24 h, 2 µM; remark: listed apart in the source
# [12] = human gut metagenome, 24 h, 2 µM; remark: listed apart in the source
# [13] = as §1, with “WLS-310” for “WLS-077”, “ERS12561785” for “ERS12561750”; settings: 2 µM
# [14] = human gut metagenome, 24 h, 2 µM; remark: listed apart in the source
# [15] = human gut metagenome, 24 h, 2 µM; remark: listed apart in the source
# [16] = human gut metagenome, 24 h, 2 µM; remark: listed apart in the source
# [17] = human gut metagenome, 24 h, 2 µM; remark: listed apart in the source
# [18] = human gut metagenome, 24 h, 2 µM; remark: listed apart in the source
# [19] = human gut metagenome, 24 h, 2 µM; remark: listed apart in the source
# [20] = as §1, with “Z-026” for “WLS-077”, “to” for “to human gut”, “ERS12561825” for “ERS12561750”; settings: 2 µM
# Further: call rule not given here.
Bacterial Biotransformation [1],Bacterial Biotransformation [2],Bacterial Biotransformation [3],Bacterial Biotransformation [4],Bacterial Biotransformation [5],Bacterial Biotransformation [6],Bacterial Biotransformation [7],Bacterial Biotransformation [8],Bacterial Biotransformation [9],Bacterial Biotransformation [10],Bacterial Biotransformation [11],Bacterial Biotransformation [12],Bacterial Biotransformation [13],Bacterial Biotransformation [14],Bacterial Biotransformation [15],Bacterial Biotransformation [16],Bacterial Biotransformation [17],Bacterial Biotransformation [18],Bacterial Biotransformation [19],Bacterial Biotransformation [20],SMILES
Compound NOT metabolized,Compound NOT metabolized,Compound NOT metabolized,Compound NOT metabolized,Compound NOT metabolized,Compound NOT metabolized,Compound NOT metabolized,Compound NOT metabolized,Compound metabolized,Compound NOT metabolized,Compound metabolized,Compound NOT metabolized,Compound metabolized,Compound NOT metabolized,Compound NOT metabolized,Compound NOT metabolized,Compound NOT metabolized,Compound NOT metabolized,Compound NOT metabolized,Compound NOT metabolized,CC(C)NCC(O)COc1ccc(CCOCC2CC2)cc1 (stereo not given) [BETAXOLOL]
Compound metabolized,Compound metabolized,Compound metabolized,Compound NOT metabolized,Compound metabolized,Compound metabolized,Compound metabolized,Compound NOT metabolized,Compound metabolized,Compound NOT metabolized,Compound metabolized,Compound metabolized,Compound metabolized,Compound metabolized,Compound metabolized,Compound NOT metabolized,Compound metabolized,Compound metabolized,Compound metabolized,Compound NOT metabolized,CC(C)(Oc1ccc(CCNC(=O)c2ccc(Cl)cc2)cc1)C(=O)O [BEZAFIBRATE]
Compound metabolized,Compound NOT metabolized,Compound metabolized,Compound metabolized,Compound metabolized,Compound metabolized,Compound metabolized,Compound NOT metabolized,Compound NOT metabolized,Compound NOT metabolized,Compound metabolized,Compound metabolized,Compound metabolized,Compound metabolized,Compound metabolized,Compound metabolized,Compound metabolized,Compound metabolized,Compound metabolized,Compound NOT metabolized,CCCC1O[C@@H]2C[C@H]3[C@@H]4CCC5=CC(=O)C=C[C@]5(C)[C@H]4[C@@H](O)C[C@]3(C)[C@]2(C(=O)CO)O1 (stereo not given in full) [BUDESONIDE]
Compound NOT metabolized,Compound NOT metabolized,Compound NOT metabolized,Compound NOT metabolized,Compound NOT metabolized,Compound NOT metabolized,Compound NOT metabolized,Compound NOT metabolized,Compound NOT metabolized,Compound NOT metabolized,Compound NOT metabolized,Compound NOT metabolized,Compound NOT metabolized,Compound NOT metabolized,Compound NOT metabolized,Compound NOT metabolized,Compound NOT metabolized,Compound NOT metabolized,Compound NOT metabolized,Compound NOT metabolized,O=C(NCc1ccccc1)OCCO [BURAMATE]
Compound metabolized,Compound metabolized,Compound metabolized,Compound NOT metabolized,Compound metabolized,Compound metabolized,Compound metabolized,Compound NOT metabolized,Compound metabolized,Compound NOT metabolized,Compound metabolized,Compound metabolized,Compound metabolized,Compound metabolized,Compound metabolized,Compound NOT metabolized,Compound metabolized,Compound metabolized,Compound metabolized,Compound NOT metabolized,CCN(CC)CCOCCOC(=O)C1(c2ccccc2)CCCC1.O=C(O)CC(O)(CC(=O)O)C(=O)O [CARBETAPENTANE CITRATE]
Compound metabolized,Compound metabolized,Compound metabolized,Compound NOT metabolized,Compound metabolized,Compound metabolized,Compound metabolized,Compound NOT metabolized,Compound metabolized,Compound NOT metabolized,Compound metabolized,Compound metabolized,Compound metabolized,Compound metabolized,Compound metabolized,Compound metabolized,Compound metabolized,Compound metabolized,Compound metabolized,Compound NOT metabolized,O=C(O)COCCN1CCN(C(c2ccccc2)c2ccc(Cl)cc2)CC1 (stereo not given) [CETIRIZINE]
Compound NOT metabolized,Compound NOT metabolized,Compound metabolized,Compound NOT metabolized,Compound NOT metabolized,Compound metabolized,Compound metabolized,Compound NOT metabolized,Compound metabolized,Compound NOT metabolized,Compound metabolized,Compound metabolized,Compound metabolized,Compound NOT metabolized,Compound NOT metabolized,Compound NOT metabolized,Compound metabolized,Compound NOT metabolized,Compound NOT metabolized,Compound NOT metabolized,Br.CN(C)CCCC1(c2ccc(F)cc2)OCc2cc(C#N)ccc21 (stereo not given) [CITALOPRAM HYDROBROMIDE]
Compound NOT metabolized,Compound metabolized,Compound metabolized,Compound NOT metabolized,Compound metabolized,Compound metabolized,Compound metabolized,Compound metabolized,Compound NOT metabolized,Compound NOT metabolized,Compound NOT metabolized,Compound metabolized,Compound metabolized,Compound metabolized,Compound metabolized,Compound metabolized,Compound metabolized,Compound metabolized,Compound metabolized,Compound NOT metabolized,CN(C)CCC=C1c2ccccc2C=Cc2ccccc21 [CYCLOBENZAPRINE]

SMILES,Bacterial Biotransformation [1],Bacterial Biotransformation [2],Bacterial Biotransformation [3],Bacterial Biotransformation [4],Bacterial Biotransformation [5],Bacterial Biotransformation [6],Bacterial Biotransformation [7],Bacterial Biotransformation [8],Bacterial Biotransformation [9],Bacterial Biotransformation [10],Bacterial Biotransformation [11],Bacterial Biotransformation [12],Bacterial Biotransformation [13],Bacterial Biotransformation [14],Bacterial Biotransformation [15],Bacterial Biotransformation [16],Bacterial Biotransformation [17],Bacterial Biotransformation [18],Bacterial Biotransformation [19],Bacterial Biotransformation [20]
CN/C(=N/CCSCc1nc[nH]c1C)NC#N [CIMETIDINE],Compound metabolized,Compound NOT metabolized,Compound metabolized,Compound NOT metabolized,Compound NOT metabolized,Compound NOT metabolized,Compound NOT metabolized,Compound NOT metabolized,Compound NOT metabolized,Compound NOT metabolized,Compound metabolized,Compound metabolized,Compound metabolized,Compound metabolized,Compound metabolized,Compound NOT metabolized,Compound metabolized,Compound NOT metabolized,Compound metabolized,Compound NOT metabolized
